Results from BigSolDB 2.1.

CC[n+]1ccccc1.F[P-](F)(F)(F)(F)F
solubility (mole fraction)
Settings	in ethanol	in water
278.15 K	8.4e-05	0.000474
283.15 K	0.000121	0.000581
288.15 K	0.000171	0.000711
293.15 K	0.000224	0.000857
298.15 K	0.000324	0.00105
303.15 K	0.000561	0.0013
308.15 K	0.00061	0.00159
313.15 K	0.000718	0.00186
318.15 K	0.000976	0.00216
323.15 K	0.0015	0.0026
328.15 K	0.00189	0.00325
333.15 K	0.00252	0.00387
338.15 K	0.00308	0.00454
343.15 K	0.00389	0.00535
